Source: ChEMBL document CHEMBL4229359, “Simple 2(5H)-furanone derivatives with selective cytotoxicity towards non-small cell lung cancer cell line A549 - Synthesis, structure-activity relationship and biological evaluation” (Eur J Med Chem, 2018)
Activity calls are given as the source filed them. No cut-off for these calls is given here.

Legend:
A549 [1] = assay: Cytotoxicity against human A549 cells assessed as reduction in cell viability after 72 hrs by MTT assay; type: functional, cell-based; conditions: A549, 72 h
BEAS-2B = assay: Cytotoxicity against human BEAS2B cells assessed as reduction in cell viability after 72 hrs by MTT assay; type: cell-based
[2] = Selectivity index, ratio of IC50 for human BEAS2B cells to IC50 for human A549 cells; type: toxicity
HCT-116 [3] = assay: Cytotoxicity against human HCT116 cells assessed as reduction in cell viability after 72 hrs by MTT assay; type: functional, cell-based; conditions: HCT-116, 72 h
HCT-116 [4] = assay: Cytotoxicity against p53-/- human HCT116 cells assessed as reduction in cell viability after 72 hrs by MTT assay; type: functional, cell-based; conditions: HCT-116, 72 h
HT-29 = assay: Cytotoxicity against human HT-29 cells assessed as reduction in cell viability after 72 hrs by MTT assay; type: functional, cell-based; conditions: HT-29, 72 h
LoVo = assay: Cytotoxicity against human LoVo cells assessed as reduction in cell viability after 72 hrs by MTT assay; type: functional, cell-based
Hep 3B2 = assay: Cytotoxicity against human Hep3B cells assessed as reduction in cell viability after 72 hrs by MTT assay; type: functional, cell-based
HepG2 = assay: Cytotoxicity against human HepG2 cells assessed as reduction in cell viability after 72 hrs by MTT assay; type: functional, cell-based; conditions: HepG2, 72 h
U2OS = assay: Cytotoxicity against human U2OS cells assessed as reduction in cell viability after 72 hrs by MTT assay; type: functional, cell-based
SJSA-1 = assay: Cytotoxicity against human SJSA1 cells assessed as reduction in cell viability after 72 hrs by MTT assay; type: functional, cell-based; conditions: SJSA-1, 72 h
MCF7 = assay: Cytotoxicity against human MCF7 cells assessed as reduction in cell viability after 72 hrs by MTT assay; type: functional, cell-based; conditions: MCF7, 72 h
PC-3 = assay: Cytotoxicity against human PC3 cells assessed as reduction in cell viability after 72 hrs by MTT assay; type: functional, cell-based; conditions: PC-3, 72 h
DU-145 = assay: Cytotoxicity against human DU145 cells assessed as reduction in cell viability after 72 hrs by MTT assay; type: functional, cell-based; conditions: DU-145, 72 h
A549 [5] = assay: Cell cycle arrest in human A549 cells assessed as accumulation at G1-phase at 10 uM after 24 hrs by propidium iodide staining based flow cytometry (reference value: 59.4%); type: functional
A549 [6] = assay: Cell cycle arrest in human A549 cells assessed as accumulation at S-phase at 10 uM after 24 hrs by propidium iodide staining based flow cytometry (reference value: 34.1%); type: functional
A549 [7] = assay: Cell cycle arrest in human A549 cells assessed as accumulation at G2/M-phase at 10 uM after 24 hrs by propidium iodide staining based flow cytometry (reference value: 6.5%); type: functional
A549 [8] = assay: Cell cycle arrest in human A549 cells assessed as accumulation at G1-phase at 10 uM after 72 hrs by propidium iodide staining based flow cytometry (reference value: 75.2 to 76%); type: functional
A549 [9] = assay: Cell cycle arrest in human A549 cells assessed as accumulation at S-phase at 10 uM after 72 hrs by propidium iodide staining based flow cytometry (reference value: 16.8 to 18.5%); type: functional
A549 [10] = assay: Cell cycle arrest in human A549 cells assessed as accumulation at G2/M-phase at 10 uM after 72 hrs by propidium iodide staining based flow cytometry (reference value: 6.3 to 7.2%); type: functional
A549 [11] = assay: Upregulation of Cyclin-B1 protein expression in human A549 cells at 10 uM after 72 hrs by Western blot analysis; type: functional, cell-based
A549 [12] = assay: Cell cycle arrest in human A549 cells assessed as accumulation at G1-phase at 20 uM after 72 hrs by propidium iodide staining based flow cytometry (reference value: 61.5%); type: functional
A549 [13] = assay: Cell cycle arrest in human A549 cells assessed as accumulation at S-phase at 20 uM after 72 hrs by propidium iodide staining based flow cytometry (reference value: 31.9%); type: functional
A549 [14] = assay: Cell cycle arrest in human A549 cells assessed as accumulation at G2/M-phase at 20 uM after 72 hrs by propidium iodide staining based flow cytometry (reference value: 6.7%); type: functional
A549 [15] = assay: Induction of apoptosis in human A549 cells assessed as live cells at 20 uM after 72 hrs by Annexin V-FITC/propidium iodide staining based flow cytometry (reference value: 98.5%); type: functional
A549 [16] = assay: Induction of apoptosis in human A549 cells assessed as early apoptotic cells at 20 uM after 72 hrs by Annexin V-FITC/propidium iodide staining based flow cytometry (reference value: 0.4%); type: functional
A549 [17] = assay: Induction of apoptosis in human A549 cells assessed as late apoptotic cells at 20 uM after 72 hrs by Annexin V-FITC/propidium iodide staining based flow cytometry (reference value: 0.5%); type: functional
A549 [18] = assay: Induction of apoptosis in human A549 cells assessed as necrotic cells at 20 uM after 72 hrs by Annexin V-FITC/propidium iodide staining based flow cytometry (reference value: 0.6%); type: functional
A549 [19] = assay: Effect on Bad protein expression in human A549 cells at 20 uM after 72 hrs by densitometric analysis; type: functional, cell-based
A549 [20] = assay: Effect on Bax protein expression in human A549 cells at 20 uM after 72 hrs by densitometric analysis; type: functional, cell-based
A549 [21] = assay: Effect on Bcl2 protein expression in human A549 cells at 20 uM after 72 hrs by densitometric analysis; type: functional, cell-based
A549 [22] = assay: Effect on Bcl-x protein expression in human A549 cells at 20 uM after 72 hrs by densitometric analysis; type: functional, cell-based
A549 [23] = assay: Effect on Pro-caspase-3 protein expression in human A549 cells at 20 uM after 72 hrs by densitometric analysis; type: functional, cell-based
A549 [24] = assay: Effect on cleaved caspase-3 protein expression in human A549 cells at 20 uM after 72 hrs by densitometric analysis; type: functional, cell-based
A549 [25] = assay: Induction of apoptosis in human A549 cells assessed as caspase-3 cleavage at 20 uM after 72 hrs by Western blot analysis; type: functional, cell-based
A549 [26] = assay: Anticlonogenic activity against human A549 cells at 10 uM after 24 to 72 hrs by crystal violet staining based microscopic method; type: functional, cell-based
A549 [27] = assay: Anticlonogenic activity against human A549 cells at 10 uM after 72 hrs by crystal violet staining based microscopic method relative to control; type: functional

CC(C)OC1OC(=O)C(Cl)=C1Nc1ccc(Br)cc1 (configuration not stated)
IC50 (A549 [1]): 95.9 µM
IC50 (BEAS-2B): 202 µM
log(RatioIC50) [2]: 0.32

O=C1OC(O)C(Cl)=C1Cl (configuration not stated) [MUCOCHLORIC ACID]
IC50 (A549 [1]): 123 µM
IC50 (BEAS-2B): 45 µM
log(RatioIC50) [2]: -0.44
IC50 (HCT-116 [3]): 8.3 µM
IC50 (HCT-116 [4]): 10.8 µM
IC50 (HT-29): 21.8 µM
IC50 (LoVo): 17.2 µM
IC50 (Hep 3B2): 85.1 µM
IC50 (HepG2): 111 µM
IC50 (U2OS): 58.5 µM
IC50 (SJSA-1): 39.4 µM
IC50 (MCF7): 32.3 µM
IC50 (PC-3): 24.7 µM
IC50 (DU-145): 130 µM
Activity (A549 [5]): 58.7%
Activity (A549 [6]): 33.3%
Activity (A549 [7]): 8%
Activity (A549 [8]): 74%
Activity (A549 [9]): 18.8%
Activity (A549 [10]): 7.2%
Activity (A549 [11]): inactive
Activity (A549 [12]): 64.2%
Activity (A549 [13]): 29%
Activity (A549 [14]): 6.9%
Activity (A549 [15]): 98.6%
Activity (A549 [16]): 0.3%
Activity (A549 [17]): 0.3%
Activity (A549 [18]): 0.8%
Activity (A549 [19]): inactive
Activity (A549 [20]): inactive
Activity (A549 [21]): inactive
Activity (A549 [22]): inactive
Activity (A549 [23]): inactive
Activity (A549 [24]): inactive
Activity (A549 [25]): inactive
Activity (A549 [26]): inactive

COC1OC(=O)C(Cl)=C1Cl (configuration not stated)
IC50 (A549 [1]): 5.1 µM
IC50 (BEAS-2B): 4.6 µM
log(RatioIC50) [2]: 0.05

CCCCOC1OC(=O)C(Cl)=C1Nc1ccccc1 (configuration not stated)
IC50 (A549 [1]): 175 µM
IC50 (BEAS-2B): 206 µM
log(RatioIC50) [2]: 0.07

CC(C)(C)COC1OC(=O)C(Cl)=C1Nc1ccc(Cl)cc1 (configuration not stated)
IC50 (A549 [1]): 13.3 µM
IC50 (BEAS-2B): 30.3 µM
log(RatioIC50) [2]: 0.36

C#Cc1cccc(Nc2ncnc3cc(OCCOC)c(OCCOC)cc23)c1 [ERLOTINIB]
Activity (A549 [8]): 74.5%
Activity (A549 [9]): 18.5%
Activity (A549 [10]): 6%
Activity (A549 [27]): 75%

CC(C)(C)COC1OC(=O)C(Cl)=C1Nc1ccc(Br)cc1 (configuration not stated)
IC50 (A549 [1]): 28 µM
IC50 (BEAS-2B): 30.9 µM
log(RatioIC50) [2]: 0.23

CC(C)(C)COC1OC(=O)C(Cl)=C1N1CCCCC1 (configuration not stated)
IC50 (A549 [1]): > 400 µM
IC50 (BEAS-2B): > 400 µM

CCCCOC1OC(=O)C(Cl)=C1Nc1ccc(Br)cc1 (configuration not stated)
IC50 (A549 [1]): 46.5 µM
IC50 (BEAS-2B): 42.7 µM
log(RatioIC50) [2]: -0.04

CCOC1OC(=O)C(Cl)=C1Cl (configuration not stated)
IC50 (A549 [1]): 6.3 µM
IC50 (BEAS-2B): 3.8 µM
log(RatioIC50) [2]: 0.22

CCCCOC1OC(=O)C(Cl)=C1N1CCCCC1 (configuration not stated)
IC50 (A549 [1]): 93.3 µM
IC50 (BEAS-2B): 172 µM
log(RatioIC50) [2]: 0.27

CC(C)OC1OC(=O)C(Cl)=C1Nc1ccc(Cl)cc1 (configuration not stated)
IC50 (A549 [1]): 39.6 µM
IC50 (BEAS-2B): 77 µM
log(RatioIC50) [2]: 0.29

CC(C)OC1OC(=O)C(Cl)=C1Nc1ccccc1 (configuration not stated)
IC50 (A549 [1]): > 400 µM
IC50 (BEAS-2B): > 400 µM

CC(C)OC1OC(=O)C(Cl)=C1Nc1ccc(F)cc1 (configuration not stated)
IC50 (A549 [1]): 186 µM
IC50 (BEAS-2B): > 400 µM

CC(C)OC1OC(=O)C(Cl)=C1N1CCCCC1 (configuration not stated)
IC50 (A549 [1]): > 400 µM
IC50 (BEAS-2B): > 400 µM

CCCCOC1OC(=O)C(Cl)=C1Nc1ccc(Cl)cc1 (configuration not stated)
IC50 (A549 [1]): 58.1 µM
IC50 (BEAS-2B): 60.8 µM
log(RatioIC50) [2]: 0.02

CC(C)(C)OC1OC(=O)C(Cl)=C1Cl (configuration not stated)
IC50 (A549 [1]): 14 µM
IC50 (BEAS-2B): 23.1 µM
log(RatioIC50) [2]: 0.22

CCCCOC1OC(=O)C(Cl)=C1Cl (configuration not stated)
IC50 (A549 [1]): 22.5 µM
IC50 (BEAS-2B): 22.3 µM
log(RatioIC50) [2]: 0

CCCOC1OC(=O)C(Cl)=C1Cl (configuration not stated)
IC50 (A549 [1]): 3.6 µM
IC50 (BEAS-2B): 3.5 µM
log(RatioIC50) [2]: -0.02

CC(C)(C)COC1OC(=O)C(Cl)=C1Cl (configuration not stated)
IC50 (A549 [1]): 7.7 µM
IC50 (BEAS-2B): 59 µM
log(RatioIC50) [2]: 0.88
IC50 (HCT-116 [3]): 7.2 µM
IC50 (HCT-116 [4]): 6.2 µM
IC50 (HT-29): 7.2 µM
IC50 (LoVo): 7.3 µM
IC50 (Hep 3B2): 27.8 µM
IC50 (HepG2): 17.6 µM
IC50 (U2OS): 38.1 µM
IC50 (SJSA-1): 11.1 µM
IC50 (MCF7): 11.2 µM
IC50 (PC-3): 6 µM
IC50 (DU-145): 26.8 µM
Activity (A549 [5]): 62.1%
Activity (A549 [6]): 32.6%
Activity (A549 [7]): 5.3%
Activity (A549 [8]): 74%
Activity (A549 [9]): 17.6%
Activity (A549 [10]): 8.4%
Activity (A549 [11]): inactive
Activity (A549 [12]): 51.2%
Activity (A549 [13]): 40.8%
Activity (A549 [14]): 8%
Activity (A549 [15]): 77.7%
Activity (A549 [16]): 4.2%
Activity (A549 [17]): 16.1%
Activity (A549 [18]): 2.3%
Activity (A549 [19]): inactive
Activity (A549 [20]): inactive
Activity (A549 [21]): inactive
Activity (A549 [22]): inactive
Activity (A549 [23]): inactive
Activity (A549 [24]): inactive
Activity (A549 [25]): inactive
Activity (A549 [26]): Active

CC(C)(C)COC1OC(=O)C(Cl)=C1Nc1ccccc1 (configuration not stated)
IC50 (A549 [1]): 76.2 µM
IC50 (BEAS-2B): 76.2 µM
log(RatioIC50) [2]: 0

CCCCOC1OC(=O)C(Cl)=C1Nc1ccc(F)cc1 (configuration not stated)
IC50 (A549 [1]): 78.5 µM
IC50 (BEAS-2B): 122 µM
log(RatioIC50) [2]: 0.19

CC(C)(C)COC1OC(=O)C(Cl)=C1Nc1ccc(F)cc1 (configuration not stated)
IC50 (A549 [1]): 26.7 µM
IC50 (BEAS-2B): 47.6 µM
log(RatioIC50) [2]: 0.25
